We go through 16 compounds from patent US11753407B2, “Compounds for treating spinal muscular atrophy” (PTC Therapeutics, Inc., priority 2012, dated 2023).

By melting point is commonly meant the temperature of the solid-liquid transition.

Data set [1] deals with SMN2 minigene mRNA (SMN2-A minigene) in HEK293H cells. Nature of the data set: SMN2 minigene mRNA splicing RT-qPCR assay in cultured cells. The conditions noted are these: Homo sapiens, HEK293-H; concentration increasing full length SMN2 mRNA 1.5-fold relative to vehicle-treated cells; HEK293H cells with SMN2-A minigene, 24 hours, 7-point concentration data; read-out: EC1.5x for production of full length SMN2 mRNA. Type of data set: cell-based, human. The gist of the method:
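HEK293H cells stably carrying SMN2-A minigene treated with compounds (7-point, 3.16-fold dilutions, duplicates) for 24 h at 37 °C. Full-length exon 7-containing minigene mRNA measured by multiplex RT-qPCR with GAPDH, normalized and expressed relative to vehicle (modified ΔΔCt); EC1.5× is concentration giving 1.5-fold increase.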

Data set [2] relates to Smn protein in SMA patient fibroblast cells (GM03813). Nature of the data set: Smn protein assay in cultured cells (SMN HTRF). It is filed as cell-based, human. To be noted: SMA patient fibroblast cells, 48 hours; for EC1.5x for Smn protein expression: 7-point concentration curve, SMN HTRF, concentration producing 1.5 times Smn protein vs DMSO vehicle control; for maximum fold (Fold) increase of Smn protein: 7-point concentration data, fold relative to vehicle control. The gist of the method: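 SMA patient fibroblasts (5,000/well, DMEM-10% FBS) treated 48 h at 37° C with 7-point, 3.16-fold compound series in triplicate; lysates read by SMN HTRF (665/620 nm ratio). Fold Smn increase over DMSO vehicle derived; EC1.5× is concentration giving 1.5-fold Smn, with maximum fold also reported.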
A general note: TR-FRET usually uses a lanthanide donor and a delayed reading to cut background.

On to `Cc1cn2nc(-c3cc(=O)n4cc(N5CC(N(C)C)C5)ccc4n3)cc2c(C)n1` [Compound 757, 7-[3-(dimethylamino)azetidin-1-yl]-2-(4,6-dimethylpyrazolo[1,5-a]pyrazin-2-yl)-4H-pyrido[1,2-a]pyrimidin-4-one], for which the melting point was in the range of 226 to 228 °C. Further, the EC (1.5-fold increase) in data set [1] is 0.3 to 1 µM. For the same compound, in data set [2], the “EC1.5x for Smn protein expression” value was “*** (an EC1.5× between >0.3 μM and ≤1 μM is indicated by three stars (***))”; the “maximum fold (Fold) increase of Smn protein” value (“maximum fold (Fold) increase” for short) was “**** (a fold increase between >1.5 and ≤1.65 is indicated by four stars (****))”.

In the case of `CCN1CC=C(c2ccc3nc(-c4ccc5nc(C)oc5c4)cc(=O)n3n2)CC1` [Compound 493, 7-(1-ethyl-1,2,3,6-tetrahydropyridin-4-yl)-2-(2-methyl-1,3-benzoxazol-6-yl)-4H-pyrimido[1,2-b]pyridazin-4-one], the melting point was in the range of 205 to 207 °C. In data set [1], the EC (1.5-fold increase) was < 0.1 µM. Moreover, in data set [2], the “EC1.5x for Smn protein expression” value is “*** (an EC1.5× between >0.3 μM and ≤1 μM is indicated by three stars (***))”; the “maximum fold (Fold) increase” value was “**** (a fold increase between >1.5 and ≤1.65 is indicated by four stars (****))”.

`CCc1nc(C)cn2nc(-c3cc(=O)n4cc(N5CCN(C6COC6)[C@H](C)C5)ccc4n3)cc12` [Compound 646, 2-(4-ethyl-6-methylpyrazolo[1,5-a]pyrazin-2-yl)-7-[(3R)-3-methyl-4-(oxetan-3-yl)piperazin-1-yl]-4H-pyrido[1,2-a]pyrimidin-4-one] had a melting point of 216 to 219 °C. For the same compound, the EC (1.5-fold increase) in data set [1] fell in the range of 0.3 to 1 µM. Further, in data set [2], the “EC1.5x for Smn protein expression” value is “** (an EC1.5× between >1 μM and ≤3 μM is indicated by two stars (**))”; the “maximum fold (Fold) increase” value is listed as “***** (a fold increase >1.65 is indicated by five stars (*****))”.

For the compound `COc1ccc(-c2cc(=O)n3cc(N4C[C@H]5CCCN[C@H]5C4)ccc3n2)cc1F` [Compound 301, 2-(3-fluoro-4-methoxyphenyl)-7-[(4aR,7aR)-octahydro-6H-pyrrolo[3,4-b]pyridin-6-yl]-4H-pyrido[1,2-a]pyrimidin-4-one], the melting point is 194 to 201 °C. Besides, the EC (1.5-fold increase) in data set [1] was 1 to 3 µM. Further, the “maximum fold (Fold) increase” value in data set [2] was “* (A maximum fold increase of ≤1.2 is indicated by one star (*))”.

For the compound `CCN1CC=C(c2cn3c(=O)cc(-c4ccc5nc(C)oc5c4)nc3cn2)CC1` [Compound 423, 7-(1-ethyl-1,2,3,6-tetrahydropyridin-4-yl)-2-(2-methyl-1,3-benzoxazol-6-yl)-4H-pyrazino[1,2-a]pyrimidin-4-one], the melting point lay in the range of 225 to 227 °C. In addition, the EC (1.5-fold increase) in data set [1] was < 0.1 µM. Moreover, in data set [2], the “EC1.5x for Smn protein expression” value was “*** (an EC1.5× between >0.3 μM and ≤1 μM is indicated by three stars (***))”; the “maximum fold (Fold) increase” value is “**** (a fold increase between >1.5 and ≤1.65 is indicated by four stars (****))”.

As to `COc1cccc(-c2cc(=O)n3cc(N4CCNCC4)ccc3n2)c1` [Compound 22, 2-(3-methoxyphenyl)-7-(piperazin-1-yl)-4H-pyrido[1,2-a]pyrimidin-4-one], the melting point is 147 to 149 °C. For the same compound, the EC (1.5-fold increase) in data set [1] lay in the range of 0.3 to 1 µM. In data set [2], the “EC1.5x for Smn protein expression” value was “** (an EC1.5× between >1 μM and ≤3 μM is indicated by two stars (**))”; the “maximum fold (Fold) increase” value was “*** (a fold increase between >1.35 and ≤1.5 is indicated by three stars (***))”.

`Cc1cn2nc(-c3cc(=O)n4cc(N5CCC(CN(C)C)CC5)ccc4n3)cc2c(C)n1` [Compound 570, 7-{4-[(dimethylamino)methyl]piperidin-1-yl}-2-(4,6-dimethylpyrazolo[1,5-a]pyrazin-2-yl)-4H-pyrido[1,2-a]pyrimidin-4-one] displayed a melting point of 206 to 208 °C. Moreover, the EC (1.5-fold increase) in data set [1] was in the range of 0.3 to 1 µM. Moreover, in data set [2], the “EC1.5x for Smn protein expression” value is “** (an EC1.5× between >1 μM and ≤3 μM is indicated by two stars (**))”; the “maximum fold (Fold) increase” value is “**** (a fold increase between >1.5 and ≤1.65 is indicated by four stars (****))”.

Compound `Cc1nc2ccc(-c3cc(=O)n4cc(N5CCN[C@@H](C)C5)ccc4n3)cc2s1` [Compound 221, 2-(2-methyl-1,3-benzothiazol-6-yl)-7-[(3S)-3-methylpiperazin-1-yl]-4H-pyrido[1,2-a]pyrimidin-4-one] returned a melting point of 214 to 216 °C. Also, in data set [1], the EC (1.5-fold increase) is < 0.1 µM. In data set [2], the “EC1.5x for Smn protein expression” value is recorded as “**** (an EC1.5x≤0.3 μM is indicated by four stars (****))” and the “maximum fold (Fold) increase” value is given as “***** (a fold increase >1.65 is indicated by five stars (*****))”.

With `Cc1cn2cc(-c3cc(=O)n4cc(N5CCN6CCC[C@H]6C5)ccc4n3)cc(F)c2n1` [Compound 271, 2-(8-fluoro-2-methylimidazo[1,2-a]pyridin-6-yl)-7-[(8aS)-hexahydropyrrolo[1,2-a]pyrazin-2(1H)-yl]-4H-pyrido[1,2-a]pyrimidin-4-one], the melting point was in the range of 270 to 274 °C. In data set [1], the EC (1.5-fold increase) was < 0.1 µM. Also, in data set [2], the “EC1.5x for Smn protein expression” value is on record as “**** (an EC1.5x≤0.3 μM is indicated by four stars (****))” and the “maximum fold (Fold) increase” value was “***** (a fold increase >1.65 is indicated by five stars (*****))”.

`Cc1cn2nc(-c3cc(=O)n4cc(N5CCN(CCO)CC5)ccc4n3)cc2cn1` [Compound 469, 7-[4-(2-hydroxyethyl)piperazin-1-yl]-2-(6-methylpyrazolo[1,5-a]pyrazin-2-yl)-4H-pyrido[1,2-a]pyrimidin-4-one] showed a melting point of 254 to 256 °C. Besides, the EC (1.5-fold increase) in data set [1] is 0.1 to 0.3 µM. In data set [2], the “EC1.5x for Smn protein expression” value was “*** (an EC1.5× between >0.3 μM and ≤1 μM is indicated by three stars (***))”; the “maximum fold (Fold) increase” value is recorded as “***** (a fold increase >1.65 is indicated by five stars (*****))”.

For `Cc1cn2nc(-c3cc(=O)n4cc(C5C[C@H](C)N[C@@H](C)C5)ccc4n3)cc2c(C)n1` (stereo partly drawn) [Compound 800, 7-[(2S,6S)-2,6-dimethylpiperidin-4-yl]-2-(4,6-dimethylpyrazolo[1,5-a]pyrazin-2-yl)-4H-pyrido[1,2-a]pyrimidin-4-one], the melting point fell in the range of 248 to 250 °C. In data set [1], the EC (1.5-fold increase) is < 0.1 µM. Besides, in data set [2], the “EC1.5x for Smn protein expression” value is “**** (an EC1.5x≤0.3 μM is indicated by four stars (****))” and the “maximum fold (Fold) increase” value is reported as “***** (a fold increase >1.65 is indicated by five stars (*****))”.

On to `Cc1nc2ccc(-c3cc(=O)n4cc(N5CC[C@H](N(C)C)C5)ccc4n3)cc2o1` [Compound 241, 7-[(3S)-3-(dimethylamino)pyrrolidin-1-yl]-2-(2-methyl-1,3-benzoxazol-6-yl)-4H-pyrido[1,2-a]pyrimidin-4-one], for which the melting point lay within 189 to 193 °C. Also, the EC (1.5-fold increase) in data set [1] fell in the range of 0.1 to 0.3 µM. Moreover, in data set [2], the “EC1.5x for Smn protein expression” value was “**** (an EC1.5x≤0.3 μM is indicated by four stars (****))” and the “maximum fold (Fold) increase” value is “***** (a fold increase >1.65 is indicated by five stars (*****))”.

For `COc1ccc(-c2cc(=O)n3cc(N4CC[C@H](NC(C)C)C4)ccc3n2)cc1OC` [Compound 165, 2-(3,4-dimethoxyphenyl)-7-[(3S)-3-(propan-2-ylamino)pyrrolidin-1-yl]-4H-pyrido[1,2-a]pyrimidin-4-one], the melting point lay within 169 to 172 °C. Further, in data set [1], the EC (1.5-fold increase) was in the range of 1 to 3 µM. In addition, in data set [2], the “maximum fold (Fold) increase” value is “** (a fold increase between >1.2 and ≤1.35 is indicated by two stars (**))”.

For `CCc1nc(C)cn2nc(-c3cc(=O)n4cc(C5CCN(C6COC6)CC5)ccc4n3)cc12` [Compound 682, 2-(4-ethyl-6-methylpyrazolo[1,5-a]pyrazin-2-yl)-7-[1-(oxetan-3-yl)piperidin-4-yl]-4H-pyrido[1,2-a]pyrimidin-4-one], the melting point was in the range of 190 to 192 °C. Moreover, the EC (1.5-fold increase) in data set [1] was in the range of 0.3 to 1 µM. Further, in data set [2], the “EC1.5x for Smn protein expression” value was “** (an EC1.5× between >1 μM and ≤3 μM is indicated by two stars (**))”; the “maximum fold (Fold) increase” value was “***** (a fold increase >1.65 is indicated by five stars (*****))”.

For the compound `CCc1nc(C)cn2nc(-c3cc(=O)n4cc(C5=CCNCC5)ccc4n3)cc12` [Compound 763, 2-(4-ethyl-6-methylpyrazolo[1,5-a]pyrazin-2-yl)-7-(1,2,3,6-tetrahydropyridin-4-yl)-4H-pyrido[1,2-a]pyrimidin-4-one], the melting point lay in the range of 287 to 289 °C. Besides, the EC (1.5-fold increase) in data set [1] was < 0.1 µM. In data set [2], the “EC1.5x for Smn protein expression” value is “**** (an EC1.5x≤0.3 μM is indicated by four stars (****))” and the “maximum fold (Fold) increase” value is listed as “***** (a fold increase >1.65 is indicated by five stars (*****))”.

Take `Cc1cn2nc(-c3cc(=O)n4cc(N5CCN(C)[C@@H](C)C5)cc(C)c4n3)cc2c(C)n1` [Compound 563, 7-[(3S)-3,4-dimethylpiperazin-1-yl]-2-(4,6-dimethylpyrazolo[1,5-a]pyrazin-2-yl)-9-methyl-4H-pyrido[1,2-a]pyrimidin-4-one]: the melting point was in the range of 244 to 253 °C. In addition, the EC (1.5-fold increase) in data set [1] was 0.1 to 0.3 µM. For the same compound, in data set [2], the “EC1.5x for Smn protein expression” value was “**** (an EC1.5x≤0.3 μM is indicated by four stars (****))” and the “maximum fold (Fold) increase” value is reported as “***** (a fold increase >1.65 is indicated by five stars (*****))”.
